Assay results reported in patent US20060160810A1, “2-Alkoxyphenyl substituted imidazotriazinones” (priority 2001, published 2006).

These molecules were tested against T1, human recombinant PDE5 (Homo sapiens, UniProt O76074) (assay: Phosphodiesterase [3H] cGMP-SPA enzyme assay (inhibition of PDE5 in vitro)). Conditions: human recombinant PDE5 expressed in a bacculovirus system; substance concentration at which the reaction rate is reduced by 50%; read-out: PDE V IC50.
T1 construct: made in house
Assay type: biochemical
Method: To test the inhibiting action, the “Phosphodiesterase [^3H] cGMP-SPA enzyme assay” from Amersham Life Science was used. The test was carried out according to the manufacturer's test protocol. Use was made of human recombinant PDE5 which was expressed in a bacculovirus system. The substance concentration at which the reaction rate is reduced by 50% was measured.

**Q.** For `CCCc1nc(C)c2c(=O)[nH]c(-c3cc(S(=O)(=O)N4CCNCC4)ccc3OCC)nn12` [Example 1, 2-[2-Ethoxy-5-(1-piperazinylsulphonyl)phenyl]-5-methyl-7-propylimidazo-[5,1-f]-1,2,4-triazin-4(3H)-one], which IC50 is on record?
**A.** 4.2 nM

**Q.** For `CCCc1nc(C)c2c(=O)[nH]c(-c3cc(S(=O)(=O)N4CC[N+]([O-])(CC)CC4)ccc3OCC)nn12` [Example 2, 2-{2-Ethoxy-5-[(4-ethyl-4-hydroxy-4λ^5-piperazin-1-yl)sulphonyl]phenyl}-5-methyl-7-propylimidazo[5,1-f]-1,2,4-triazin-4(3H)-one], which IC50 is on record?
**A.** 19 nM

**Q.** Which IC50 does the source give for `CCCc1nc(C)c2c(=O)[nH]c(-c3cc(S(=O)(=O)NCCNCC)ccc3OCC)nn12` [Example 3, 4-Ethoxy-N-[2-(ethylamino)ethyl]-3-(5-methyl-4-oxo-7-propyl-3,4-dihydroimidazo[5,1-f]-1,2,4-triazin-2-yl)benzenesulphonamide] here?
**A.** 19 nM

**Q.** For `CCCc1nc(C)c2c(=O)[nH]c(-c3cc(S(=O)(=O)NCCN)ccc3OCC)nn12` [Example 4, N-(2-aminoethyl)-4-ethoxy-3-(5-methyl-4-oxo-7-propyl-3,4-dihydroimidazo[5,1-f]-1,2,4-triazin-2-yl)benzenesulphonamide], which IC50 is on record?
**A.** 2.4 nM
